From patent publication US8058243B2, “Method for treating a brain cancer with ifenprodil” (HSC Research and Development Limited Partnership, priority 2006, dated 2011)
Structures can show the parent of a compound that is named as a salt. Where two headings read alike, the source gives them in different places.

System: murine neural precursor cells (neurosphere cultures)
Assay: HTS of LOPAC library against secondary neurosphere cultures, MTT proliferation assay at 3 μM, day 7 (z score, P value)
Type: cell-based, mouse
[1] = LOPAC primary screen, neurosphere MTT proliferation, 3 μM, day 7
[2] = yes = significantly inhibited neurosphere proliferation (P<0.01) in the primary screen
[3] = yes/no: significantly inhibited neurosphere proliferation (P<0.01) in primary screen
[4] = LOPAC library screen at 3 μM, MTT, secondary neurosphere cultures, screened in singlets
[5] = LOPAC library screen, 3 μM, MTT, secondary neurosphere cultures, day 7
[6] = primary LOPAC screen, 3 μM, MTT, neurosphere proliferation
[7] = yes/no: significantly inhibited neurosphere proliferation in the primary screen
[8] = LOPAC library screen at 3 μM, secondary neurosphere cultures, MTT
[9] = yes/no: significantly inhibited neurosphere proliferation in primary screen
[10] = LOPAC screen, neurosphere MTT proliferation, 3 μM, day 7
[11] = LOPAC library screen, 3 μM, MTT, neurosphere cultures
[12] = yes/no: significantly inhibited neurosphere proliferation (P<0.01) in the primary screen

CC(C)c1ccc2c(c1)c(SC(C)(C)C)c(CC(C)(C)C(=O)O)n2Cc1ccc(Cl)cc1 [MK-886]
Z Score: −1.549
Z score [1]: −1.549
Activity [2]: no

Nc1nc(Cl)nc2c1ncn2[C@@H]1O[C@H](COP(=O)([O-])OP(=O)([O-])OP(=O)([O-])[O-])[C@@H](O)[C@H]1O.[Na+].[Na+].[Na+].[Na+] [2-Chloroadenosine triphosphate tetrasodium]
Z Score (168 h, 3 µM): 1.149
Z score (168 h, 3 µM): 1.149
Activity [3]: no

C#CCN(C)CCCOc1ccc(Cl)cc1Cl [Clorgyline hydrochloride]
Activity: no
Z Score [4]: 1.52
Z score [1]: 1.520

Oc1cc(-c2ccccc2)nc2nc(Cl)ccc12 [7-Chloro-4-hydroxy-2-phenyl-1,8-naphthyridine]
Z Score (168 h, 3 µM): −0.401
Z score (168 h, 3 µM): −0.401
Activity [3]: no

L(−)-Norepinephrine bitartrate
Z Score [5]: −1.418
Z score [6]: −1.418
Activity [7]: no

COc1ccccc1N1CCN(CCCNc2c(C)c(=O)n(C)c(=O)n2C)CC1 [Urapidil, 5-Methyl-]
Z Score [8]: −0.7831
Z score [6]: −0.783
Activity [7]: no

Cl.NCCc1ccc(O)cc1 [4-Hydroxyphenethylamine hydrochloride]
Z Score: 1.03
Z score [6]: 1.030
Activity [7]: no

CC1=C(CC(=O)O)c2cc(F)ccc2/C1=C\c1ccc(S(C)(=O)=O)cc1 [Sulindac sulfone]
Z Score: 0.5924
Z score [1]: 0.592
Activity [9]: no

O=c1c2ccccc2[se]n1-c1ccccc1 [Ebselen]
Z Score [8]: −0.2515
Z score [1]: −0.251

CC(C)(Oc1ccc(C2CC2(Cl)Cl)cc1)C(=O)O (centres unmarked) [Ciprofibrate]
Z Score [5]: −1.326
Z score [10]: −1.326
Activity [3]: no

Cc1cc(C)c(NC(=O)C[C@H](CC(=O)O)c2cccc3ccccc23)c(C(=O)N2CCC3(CCCC3)CC2)c1 [CR 2945]
Z Score (168 h, 3 µM): 0.5451
Z score (168 h, 3 µM): 0.545
Activity [3]: no

CCn1c(=O)[nH]c2cc(Cl)c(Cl)cc21 [DCEBIO]
Z Score: 0.8099
Z score [10]: 0.810
Activity [3]: no

CC[C@@]1(O)C(=O)OCc2c1cc1n(c2=O)Cc2cc3ccccc3nc2-1 [(S)-(+)-Camptothecin]
Z Score [5]: −9.67
Z score [1]: −9.670
Activity [2]: yes

Cl.Cn1ccc2cc(NC(=O)Nc3cccnc3)ccc21 [SB 200646 hydrochloride]
Z Score: 2.437
Z score [6]: 2.437
Activity [7]: no

Cc1nc2sccn2c(=O)c1CCN1CCC(=C(c2ccc(F)cc2)c2ccc(F)cc2)CC1 [Ritanserin]
Z Score [8]: −0.6957
Z score [1]: −0.696
Activity [9]: no

C[C@H]1C[C@H]2[C@@H]3CCC4=CC(=O)C=C[C@]4(C)[C@@]3(F)[C@@H](O)C[C@]2(C)[C@@]1(O)C(=O)CO [Betamethasone]
Z Score [11]: 0.8811
Z score [10]: 0.881

OCc1cc(C(O)CNCCCCCCOCCCCc2ccccc2)ccc1O (centres unmarked) [Salmeterol]
Activity: no
Z Score [8]: −0.4896
Z score [1]: −0.490

COc1cc2nc(N3CCN(C(=O)c4ccco4)CC3)nc(N)c2cc1OC [Prazosin hydrochloride]
Activity: yes
Z Score [5]: −2.902
Z score [1]: −2.902

CC(=O)c1c(O)c(C)c(O)c(Cc2c(O)c3c(c(C(=O)/C=C/c4ccccc4)c2O)OC(C)(C)C=C3)c1O [Rottlerin]
Z Score: 0.3042
Z score [1]: 0.304
Activity [9]: no

O=C(CCCN1CC=C(n2c(=O)[nH]c3ccccc32)CC1)c1ccc(F)cc1 [Droperidol]
Activity: no
Z Score [11]: 0.6447
Z score [10]: 0.645

R(−)-2,10,11-Trihydroxyaporphine hybrobromide
Z Score: −3.309

CC#CCOC(=O)c1c(C)nc2sc3c(c2c1N)CCC(O)C3 (centres unmarked) [SB 205384]
Z Score: 0.7968
Z score [1]: 0.797
Activity [9]: no

CC(C)N(CCC(=O)c1ccc2ccccc2c1)Cc1ccccc1 [ZM 39923 hydrochloride]
Z Score [11]: 0.7457
Z score [1]: 0.746
Activity [2]: no

Cl.OC(CCN1CCCCC1)(c1ccccc1)C1CCCCC1 (centres unmarked) [Trihexylphenidyl hydrochloride]
Z score [6]: 1.215
Activity [7]: no

O=C(O)/C=C\C(=O)O.O=C(O)/C=C\C(=O)O.c1cc(CN2CCCCC2)cc(OCCCNc2nc3ccccc3s2)c1 [SKY 95282 dimaleate]
Z Score: 0.4241

CN1CCC(=C2c3ccccc3C=Cc3ccccc32)CC1 [Cyproheptadine hydrochloride]
Z Score (168 h, 3 µM): 1.232
Z score (168 h, 3 µM): 1.232
Activity [3]: no

COc1ccc(Cc2nccc3cc(OC)c(OC)cc23)cc1OC [Papaverine hydrochloride]
Z Score [8]: −0.2992
Z score [1]: −0.299
Activity [9]: no

CCCn1c(=O)c2c(ncn2C)n(CCC)c1=O [1,3-Dipropyl-7-methylxanthine]
Z Score (168 h, 3 µM): −0.08896
Z score (168 h, 3 µM): −0.089
Activity [3]: no

COC(=O)[C@@H](N)Cc1ccc(O)c(O)c1.Cl [L-3,4-Dihydroxyphenylalanine methyl ester hydrochloride]
Z Score [11]: 0.2769
Z score [10]: 0.277
Activity [3]: no

CC(=O)OCC1=C(C(=O)O)N2C(=O)[C@@H](NC(=O)CSc3ccncc3)[C@H]2SC1 [Cephapirin sodium]
Z Score [11]: 0.6219
Z score [1]: 0.622
Activity [12]: no

CCCOc1ccccc1-c1nc2nn[nH]c2c(=O)[nH]1 [Zaprinast]
Z Score [5]: −2.506
Z score [1]: −2.506
Activity [2]: yes

(±)-Pindobind
Z score [1]: 0.257
Activity [9]: no

CCC(NC(C)C)C(O)c1ccc(O)c(O)c1.CS(=O)(=O)O (centres unmarked) [Isotharine mesylate]
Z Score: −0.6392
Z score [1]: −0.639
Activity [3]: no

CCCn1c(=O)c2[nH]c(C3CCCC3)nc2n(CCCOC(=O)c2ccc(S(=O)(=O)F)cc2)c1=O [FSCPX]
Z Score: 0.7825
Z score [1]: 0.782
Activity [3]: no

Nc1ncnc2c1ncn2[C@@H]1O[C@H](CO)[C@@H](O)[C@H]1O [Adenosine]
Z Score [8]: −0.2086
Z score [6]: −0.209
Activity [7]: no

Br.Br.N=C(N)SCCc1cccc(CCSC(=N)N)c1 [1,3-PBIT dihydrobromide]
Z Score: 2.221
Z score [1]: 2.221
Activity [9]: no

Nc1nccc2c1ncn2[C@@H]1O[C@H](CO)[C@@H](O)[C@H]1O [3-deazaadenosine]
Z Score [4]: 1.77
Z score [10]: 1.770
Activity [3]: no

CN(C)CCCN1c2ccccc2Sc2ccc(C(F)(F)F)cc21 [Triflupromazine hydrochloride]
Z Score [5]: −1.82
Z score [1]: −1.820
Activity [12]: no

Oc1ccc2c3c1O[C@H]1c4oc5ccccc5c4C[C@@]4(O)[C@@H](C2)N(CC2CC2)CC[C@]314 [Naltriben methanesulfonate]
Z Score: −0.3606
Z score [1]: −0.361
Activity [9]: no

Cc1ccc(S(=O)(=O)N[C@@H](Cc2ccccc2)C(=O)CCl)cc1
Z Score: 0.3367
Z score [6]: 0.337
Activity [7]: no

O=C(Cc1ccc(Cl)c(Cl)c1)OCCN1CCCC1 [AC 915 oxalate]
Z Score [8]: −0.8903
Z score [1]: −0.890
Activity [12]: no

C[C@]12C[C@H](O)[C@H]3[C@@H](CCC4=CC(=O)CC[C@@]43C)[C@@H]1CC[C@@H]2C(=O)CO [Corticosterone]
Activity: no
Z Score [5]: −2.285
Z score [6]: −2.285

OC[C@H]1O[C@@H](n2cnc3c(NC4CCCCC4)ncnc32)[C@H](O)[C@@H]1O [N6-Cyclohexyladenosine]
Z Score [5]: −2.883
Z score [1]: −2.883
Activity [12]: yes

OC[C@H]1O[C@@H](n2cnc3ccccc32)[C@H](O)[C@@H]1O [D-ribofuranosylbenzimidazole]
Z Score: −2.144
Z score [10]: −2.144
Activity [3]: no

C=CC(N)CCC(=O)O (centres unmarked) [(B1)-gamma-Vinyl GABA]
Z Score: −0.701

Nc1ccc(S(=O)(=O)Nc2ccnn2-c2ccccc2)cc1 [Sulfaphenazole]
Z Score [5]: −1.362
Z score [1]: −1.362
Activity [9]: no

Cl.Cl.NCCSSCCN [Cystamine dihydrochloride]
Z Score: 2.23
Z score [10]: 2.230
Activity [3]: no

C[N+]1(C)[C@@H]2C[C@@H](OC(=O)[C@H](CO)c3ccccc3)C[C@H]1[C@@H]1O[C@@H]12.[Br-] [(−)-Scopolamine methyl bromide]
Z Score: −0.8468
Z score [1]: −0.847
Activity [9]: no

NC(=O)c1cccc(N)c1 [3-aminobenzamide]
Z Score: −1.034
Z score [1]: −1.034
Activity [9]: no

N#C/C(=C\c1ccc(O)c(O)c1)C(=O)NCc1ccccc1 [Tyrphostin AG 490]
Z Score [4]: 1.802
Z score [6]: 1.802
Activity [7]: no

C=CCc1ccccc1OCC(O)CNC1(C)CCC(C(C)(C)NC(=O)CBr)CC1 (centres unmarked) [Bromoacetyl alprenolol menthane]
Z Score: 1.442
Z score [10]: 1.442
Activity [3]: no

O=C1Nc2ccccc2/C1=C1/Nc2ccccc2/C1=N\O [Indirubin-3′-oxime]
Z Score [8]: −0.3965
Z score [1]: −0.397
Activity [3]: no

CCCN1CCC[C@@H](c2cccc(C#N)c2)C1.Cl [S(−)-DS 121 hydrochloride]
Z Score: −0.0998
Z score [10]: −0.100
Activity [3]: no
